The values below are quoted from earlier work in US20130150551A1, “PROCESSES FOR THE PRODUCTION OF HYDROGENATED PRODUCTS AND DERIVATIVES THEREOF” (BIOAMBER S.A.S., priority 2010, published 2013).

For the data set the following is noted: first acid group.

Consider `O=C(O)CCCCC(=O)O` [AA, adipic acid], for which the pKa1 is 4.43.
